Data as given in PubChem BioAssay AID2060601 (Molecular Pharmacology Branch, DTP, NCI, 2025).

Test system: 874868-142-R-J2-PDC complex spheroids, growth % test/control
Assay: Anticancer human tumor 874868-142-R-J2-PDC patient-derived head and neck squamous carcinoma cell line growth inhibition [CLK]
Conditions: for IC50: curve of first compound; for viability, T/C: stronger effect = lower value
Outline: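 Patient-derived tumor cells grown as complex spheroids with HUVEC endothelial cells and mesenchymal stem cells, treated with drug combinations. Concentrations descend in half-log steps from near clinical Cmax, or from 10 microM if Cmax unknown.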

[1] = second compound 0.0316 µM, first compound 0.0316 µM
[2] = second compound 0.0316 µM, first compound 0.1 µM
[3] = second compound 0.0316 µM, first compound 0.316 µM
[4] = second compound 0.0316 µM, first compound 1 µM
[5] = second compound 0.0316 µM, first compound 3.16 µM
[6] = second compound 0.0316 µM, first compound 10 µM
[7] = second compound 0.1 µM, first compound 0.0316 µM
[8] = second compound 0.1 µM, first compound 0.1 µM
[9] = second compound 0.1 µM, first compound 0.316 µM
[10] = second compound 0.1 µM, first compound 1 µM
[11] = second compound 0.1 µM, first compound 3.16 µM
[12] = second compound 0.1 µM, first compound 10 µM
[13] = second compound 0.316 µM, first compound 0.0316 µM
[14] = second compound 0.316 µM, first compound 0.1 µM
[15] = second compound 0.316 µM, first compound 0.316 µM
[16] = second compound 0.316 µM, first compound 1 µM
[17] = second compound 0.316 µM, first compound 3.16 µM
[18] = second compound 0.316 µM, first compound 10 µM
[19] = second compound 1 µM, first compound 0.0316 µM
[20] = second compound 1 µM, first compound 0.1 µM
[21] = second compound 1 µM, first compound 0.316 µM
[22] = second compound 1 µM, first compound 1 µM
[23] = second compound 1 µM, first compound 3.16 µM
[24] = second compound 1 µM, first compound 10 µM
[25] = second compound 3.16 µM, first compound 0.0316 µM
[26] = second compound 3.16 µM, first compound 0.1 µM
[27] = second compound 3.16 µM, first compound 0.316 µM
[28] = second compound 3.16 µM, first compound 1 µM
[29] = second compound 3.16 µM, first compound 3.16 µM
[30] = second compound 3.16 µM, first compound 10 µM
[31] = second compound 10 µM, first compound 0.0316 µM
[32] = second compound 10 µM, first compound 0.1 µM
[33] = second compound 10 µM, first compound 0.316 µM
[34] = second compound 10 µM, first compound 1 µM
[35] = second compound 10 µM, first compound 3.16 µM
[36] = second compound 10 µM, first compound 10 µM
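Note: spheroids exposed to the compounds for 7 days.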
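Throughout, for viability, T/C: 100% = DMSO vehicle control viability.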

Structure (SMILES): CC(C)CC(NC(=O)C(Cc1ccccc1)NC(=O)c1cnccn1)B(O)O (stereo unspecified) + CN1CCN(c2cc(C(=O)Nc3cc4cc(-c5cnn(C)c5)ccc4cn3)ccn2)CC1
- IC50 (second compound 0.0316 µM): 4.88 nM
- IC50 (second compound 0.1 µM): 4.5 nM
- IC50 (second compound 0.316 µM): < 0.949 nM
- IC50 (second compound 1 µM): < 0.949 nM
- IC50 (second compound 3.16 µM): < 0.949 nM
- IC50 (second compound 10 µM): < 0.949 nM
- viability, T/C (second compound 0.0316 µM, first compound 0.000949 µM): 79.4%
- viability, T/C (second compound 0.0316 µM, first compound 0.003 µM): 91.5%
- viability, T/C (second compound 0.0316 µM, first compound 0.00949 µM): 1.41%
- viability, T/C (second compound 0.0316 µM, first compound 0.03 µM): 0.55%
- viability, T/C (second compound 0.0316 µM, first compound 0.0949 µM): 0.23%
- viability, T/C (second compound 0.0316 µM, first compound 0.3 µM): 0.27%
- viability, T/C (second compound 0.1 µM, first compound 0.000949 µM): 68.9%
- viability, T/C (second compound 0.1 µM, first compound 0.003 µM): 83.1%
- viability, T/C (second compound 0.1 µM, first compound 0.00949 µM): 2.27%
- viability, T/C (second compound 0.1 µM, first compound 0.03 µM): 0.42%
- viability, T/C (second compound 0.1 µM, first compound 0.0949 µM): 0.14%
- viability, T/C (second compound 0.1 µM, first compound 0.3 µM): 0.34%
- viability, T/C (second compound 0.316 µM, first compound 0.000949 µM): 20.8%
- viability, T/C (second compound 0.316 µM, first compound 0.003 µM): 14.3%
- viability, T/C (second compound 0.316 µM, first compound 0.00949 µM): 0.46%
- viability, T/C (second compound 0.316 µM, first compound 0.03 µM): 0.14%
- viability, T/C (second compound 0.316 µM, first compound 0.0949 µM): 0.13%
- viability, T/C (second compound 0.316 µM, first compound 0.3 µM): 0.15%
- viability, T/C (second compound 1 µM, first compound 0.000949 µM): 0.31%
- viability, T/C (second compound 1 µM, first compound 0.003 µM): 0.22%
- viability, T/C (second compound 1 µM, first compound 0.00949 µM): 1.17%
- viability, T/C (second compound 1 µM, first compound 0.03 µM): 0.2%
- viability, T/C (second compound 1 µM, first compound 0.0949 µM): 0.1%
- viability, T/C (second compound 1 µM, first compound 0.3 µM): 0.14%
- viability, T/C (second compound 3.16 µM, first compound 0.000949 µM): 0.33%
- viability, T/C (second compound 3.16 µM, first compound 0.003 µM): 0.27%
- viability, T/C (second compound 3.16 µM, first compound 0.00949 µM): 0.28%
- viability, T/C (second compound 3.16 µM, first compound 0.03 µM): 0.14%
- viability, T/C (second compound 3.16 µM, first compound 0.0949 µM): 0.4%
- viability, T/C (second compound 3.16 µM, first compound 0.3 µM): 0.25%
- viability, T/C (second compound 10 µM, first compound 0.000949 µM): 0.09%
- viability, T/C (second compound 10 µM, first compound 0.003 µM): 3.32%
- viability, T/C (second compound 10 µM, first compound 0.00949 µM): 3.67%
- viability, T/C (second compound 10 µM, first compound 0.03 µM): 0.13%
- viability, T/C (second compound 10 µM, first compound 0.0949 µM): 0.18%
- viability, T/C (second compound 10 µM, first compound 0.3 µM): 0.22%

Structure (SMILES): CC1COCCN1c1cc(C2(S(C)(=N)=O)CC2)nc(-c2ccnc3[nH]ccc23)n1 (stereo unspecified) + CN1CCN(c2cc(C(=O)Nc3cc4cc(-c5cnn(C)c5)ccc4cn3)ccn2)CC1
- IC50 (second compound 0.0316 µM): 1900 nM
- IC50 (second compound 0.1 µM): 578 nM
- IC50 (second compound 0.316 µM): < 31.6 nM
- IC50 (second compound 1 µM): < 31.6 nM
- IC50 (second compound 3.16 µM): < 31.6 nM
- IC50 (second compound 10 µM): < 31.6 nM
- viability, T/C [1]: 87.7%
- viability, T/C [2]: 82.5%
- viability, T/C [3]: 71.3%
- viability, T/C [4]: 73.5%
- viability, T/C [5]: 31.2%
- viability, T/C [6]: 27.6%
- viability, T/C [7]: 68.9%
- viability, T/C [8]: 60.9%
- viability, T/C [9]: 59.3%
- viability, T/C [10]: 42%
- viability, T/C [11]: 20.8%
- viability, T/C [12]: 20.9%
- viability, T/C [13]: 16.6%
- viability, T/C [14]: 19.8%
- viability, T/C [15]: 18.4%
- viability, T/C [16]: 10.8%
- viability, T/C [17]: 13.7%
- viability, T/C [18]: 7.51%
- viability, T/C [19]: 0.41%
- viability, T/C [20]: 0.3%
- viability, T/C [21]: 0.49%
- viability, T/C [22]: 0.28%
- viability, T/C [23]: 0.29%
- viability, T/C [24]: 0.24%
- viability, T/C [25]: 0.19%
- viability, T/C [26]: 0.25%
- viability, T/C [27]: 0.22%
- viability, T/C [28]: 0.29%
- viability, T/C [29]: 1.32%
- viability, T/C [30]: 0.36%
- viability, T/C [31]: 5.76%
- viability, T/C [32]: 0.21%
- viability, T/C [33]: 1.83%
- viability, T/C [34]: 0.21%
- viability, T/C [35]: 0.21%
- viability, T/C [36]: 0.23%

Structure (SMILES): O=C(c1cc(Cc2n[nH]c(=O)c3ccccc23)ccc1F)N1CCN(C(=O)C2CC2)CC1 + CN1CCN(c2cc(C(=O)Nc3cc4cc(-c5cnn(C)c5)ccc4cn3)ccn2)CC1
- IC50 (second compound 0.0316 µM): > 10000 nM
- IC50 (second compound 0.1 µM): > 10000 nM
- IC50 (second compound 0.316 µM): < 31.6 nM
- IC50 (second compound 1 µM): < 31.6 nM
- IC50 (second compound 3.16 µM): < 31.6 nM
- IC50 (second compound 10 µM): < 31.6 nM
- viability, T/C [1]: 86.3%
- viability, T/C [2]: 88%
- viability, T/C [3]: 89.6%
- viability, T/C [4]: 94.7%
- viability, T/C [5]: 68.2%
- viability, T/C [6]: 83.5%
- viability, T/C [7]: 71.1%
- viability, T/C [8]: 70.4%
- viability, T/C [9]: 69.2%
- viability, T/C [10]: 65.6%
- viability, T/C [11]: 46.4%
- viability, T/C [12]: 60.5%
- viability, T/C [13]: 23.5%
- viability, T/C [14]: 20.9%
- viability, T/C [15]: 17.7%
- viability, T/C [16]: 12.1%
- viability, T/C [17]: 21.3%
- viability, T/C [18]: 15.1%
- viability, T/C [19]: 0.42%
- viability, T/C [20]: 0.25%
- viability, T/C [21]: 0.36%
- viability, T/C [22]: 0.19%
- viability, T/C [23]: 0.32%
- viability, T/C [24]: 0.44%
- viability, T/C [25]: 0.18%
- viability, T/C [26]: 0.2%
- viability, T/C [27]: 0.63%
- viability, T/C [28]: 0.28%
- viability, T/C [29]: 0.34%
- viability, T/C [30]: 2.51%
- viability, T/C [31]: 0.11%
- viability, T/C [32]: 0.31%
- viability, T/C [33]: 3.38%
- viability, T/C [34]: 0.18%
- viability, T/C [35]: 0.23%
- viability, T/C [36]: 0.69%
